# Results published in PMC5800971 (European journal of medicinal chemistry, 2017).
# Tests used:
# [1] = system: A2780 human ovarian cancer cell line; assay: Cytotoxicity of ipomoeassins A-F; assay type: cell-based; settings: from Table 1 values
# [2] = system: A2780 human ovarian cancer cell line; settings: read-out: IC50 (nM) A2780; A2780 human ovarian cancer cells; cited from earlier work
# [3] = system: human breast epithelial cell line MCF-10A; assay: Alamar Blue cytotoxicity assay; assay type: cell-based; settings: MCF-10A vs MDA-MB-231 / MCF7
# [4] = system: breast cancer cell line MDA-MB-231; assay: Alamar Blue cytotoxicity assay; assay type: cell-based; settings: for fold less potent than ipomoeassin F: MDA-MB-231
# [5] = system: MCF7 breast cancer cell line; assay: Colorimetric MTT cytotoxicity assay; assay type: cell-based
compound,measurement,setting,value
C/C=C(\C)C(=O)O[C@@H]1[C@@H](O)[C@@H]2O[C@H]3[C@H](O[C@@H](CCC)CCCCC[C@H](OC(C)=O)C(=O)CCC(=O)OC[C@@H](O2)[C@H]1OC(=O)/C=C/c1ccccc1)O[C@H](C)[C@H](O)[C@@H]3O [Ipomoeassin E],"fold activity loss, R1 H to OAc (B vs. E)",[1]; A2780,8 fold
same,IC50,[2],3300 nM
C/C=C(\C)C(=O)O[C@@H]1[C@@H](O)[C@@H]2O[C@H]3[C@H](O[C@@H](CCCCC)CCCCCNC(=O)CCC(=O)OC[C@@H](O2)[C@H]1OC(=O)/C=C/c1ccccc1)O[C@H](C)[C@H](OC(C)=O)[C@@H]3O [Analogue 2],selectivity between tumor and non-tumor cells,[3],slight selectivity towards MDA-MB-231 cells
C/C=C(\C)C(=O)O[C@@H]1[C@@H](O)[C@@H]2O[C@H]3[C@H](O[C@@H](CCCCC)CCCCOC(=O)CCC(=O)OC[C@@H](O2)[C@H]1OC(=O)/C=C/c1ccccc1)O[C@H](C)[C@H](OC(C)=O)[C@@H]3O [Analogue 25],fold activity loss compared to 1,[4]; MDA-MB-231 (printed MBA-BD-231),9 fold
same,fold activity loss compared to 1,[5],9 fold
C/C=C(\C)C(=O)O[C@@H]1[C@@H](O)[C@@H]2O[C@H]3[C@H](O[C@@H](CCC)CCCCC[C@H](O)C(=O)CCC(=O)OC[C@@H](O2)[C@H]1OC(=O)/C=C/c1ccccc1)O[C@H](C)[C@H](OC(C)=O)[C@@H]3O [Ipomoeassin C],fold activity difference between ipomoeassin C and ipomoeassin A/D,[1],up to 80 fold
C/C=C(\C)C(=O)O[C@@H]1[C@@H](O)[C@@H]2O[C@H]3[C@H](O[C@@H](CCCCC)C/C=C\CCOC(=O)CCC(=O)OC[C@@H](O2)[C@H]1OC(=O)/C=C/c1ccccc1)O[C@H](C)[C@H](OC(C)=O)[C@@H]3O [Analogue 24],fold more potent than the E-counterpart 23,"[4]; breast cancer cell lines of Table 2 (MDA-MB-231, MCF7)",~ 3 fold
C/C=C(\C)C(=O)O[C@@H]1[C@@H](O)[C@@H]2O[C@H]3[C@H](O[C@@H](CCCCC)CCCCCOC(=O)CCC(=O)OC[C@@H](O2)[C@H]1OC(=O)/C=C/c1ccccc1)O[C@H](C)[C@H](OC(C)=O)[C@@H]3O [Analogue 1],fold less potent than ipomoeassin F,[4],about 4 fold
same,fold less potent than ipomoeassin F,[5],~2 fold
C/C=C(\C)C(=O)O[C@@H]1[C@@H](O)[C@@H]2O[C@H]3[C@H](O[C@@H](CCCCC)CCCCCN(C)C(=O)CCC(=O)OC[C@@H](O2)[C@H]1OC(=O)/C=C/c1ccccc1)O[C@H](C)[C@H](OC(C)=O)[C@@H]3O [Analogue 21],fold less potent than ipomoeassin F,[4],≤ 2 fold
same,fold less potent than ipomoeassin F,[5],≤ 2 fold
C/C=C(\C)C(=O)O[C@@H]1[C@@H](O)[C@@H]2O[C@H]3[C@H](O[C@@H](CCC)CCCCC[C@H](OC(C)=O)C(=O)CCC(=O)OC[C@@H](O2)[C@H]1OC(=O)/C=C/c1ccccc1)O[C@H](C)[C@H](OC(C)=O)[C@@H]3O [Ipomoeassin D],"fold potency enhancement, R1 H to OAc (A vs. D)",[1]; A2780,up to 14 fold
